From US9801960B2, “Probe for a biological specimen and labelling method and screening method using the probe” (CANON KABUSHIKI KAISHA, priority 2008, dated 2017) come the findings set out here.

For one series, the system named is Zebrafish juveniles. In words: In vivo labelling of Zebrafish juveniles with probe for biological specimen. Set-up: key to Staining property: +++: stained; −: no stained; key to Fluorescence sensitivity: +++: strongly observed; ++: moderately observed; +: weakly observed; −: no stained. The following applies: 1 hour; for Site(s) to be labelled: 10 ng/mL in water, stereoscopic microscope; for Fluorescence sensitivity / Staining property: 10 ng/mL; for Fluorescence sensitivity: fluorescence intensity visually evaluated; for Staining property: visually evaluated. The method, then: Five juveniles of Zebrafish were put into one well of a well plate together with rearing water. After rearing water had been discharged, 1 mL of distilled water was added to the well, and a solution of a staining compound (1) in DMSO was further added thereto so as to achieve a concentration of 10 ng/mL, followed by gentle stirring (pipetting). Further, Egg Water was prepared by dissolving artificial seawater SEALIFE (manufactured by Marinetech Co., Ltd.) in distilled water at a concentration of 60 mg/L. After the whole had been left to stand for 1 hour, distilled water in the well was discharged and replaced by 1 mL of fresh Egg Water. In addition, such an operation that Egg Water was discharged and replaced by 1 mL of fresh Egg Water was repeated twice. One of the juveniles was taken out from the well onto a dish, supplemented with 100 μL of a 3% methylcellulose aqueous solution to fix the movement of the juvenile, and photographed with a stereoscopic microscope (MZ10F: manufactured by Leica Microsystems K.K.).
The same operation as that in Example 1 was performed except that the staining compound (1) used in Example 1 was changed to any one of the staining compounds described in Table 1.
The same operation as that in Example 1 was performed except that the staining compound (1) used in Example 1 was changed to any one of indocyanine green (ICG) and fluorescein.
The staining property of each of the staining compounds of Labelled Examples 1 to 78 and Labelled Comparative Examples 1 and 2 was visually evaluated (+++: stained and −: no stained).
The fluorescence intensity of each of the staining compounds of Labelled Examples 1 to 78 and Labelled Comparative Examples 1 and 2 was visually evaluated (+++: strongly observed, ++: moderately observed, +: weakly observed, and −: no stained).

Series [1] can be described thus: Storage stability of staining compound solution in DMSO. Type of series: physicochemical. The following applies: 10 ng/mL in DMSO, closed glass container, normal temperature, 1 month; rate of change of absorbance and fluorescence intensity. The method, then: A 10 ng/mL solution of each of the staining compounds of Labelled Examples 1 to 78 and Labelled Comparative Examples 1 and 2 in DMSO was prepared, charged into a well-closed container made of glass, and left to stand still at normal temperature for 1 month. The absorbance and the fluorescence intensity at the time of the start of a storage stability test were measured at a given wavelength, and their rates of change were examined (+++: rates of change of the absorbance and the fluorescence intensity are less than 5%, and thus, the storage stability is highly excellent; ++: rates of change of the absorbance and fluorescence intensity are 5 to 15%, and thus, the storage stability is excellent; and −: rates of change of the absorbance and fluorescence intensity are more than 15%, and thus, the storage stability is poor).

Series [2] in a line: Excitation and fluorescence emission wavelength measurement. The series is classed as physicochemical. Set-up: Stokes shift (λem − λex): unit not given here. The following applies: aqueous solution: 10 mg/mL solution in DMSO diluted 500-fold with purified water. The method, then: It should be noted that the excitation wavelength and the fluorescence emission wavelength of the staining compound were determined by measuring an aqueous solution, which had been obtained by diluting 500-fold a 10 mg/mL solution of the staining compound in DMSO with purified water, with a fluorescence spectrophotometer FL 4500 manufactured by Hitachi High-Technologies Corporation.

Take `O=C(O)CCN1C(=O)/C(=C\c2cc(Br)c3c(c2)C2CCCC2N3c2ccc(Br)cc2)SC1=S` (centres unmarked) [Dye 29]: in the series on Zebrafish juveniles, the “Site(s) to be labelled” value was “blood vessel, gallbladder, and liver”; the Fluorescence sensitivity entry was “+++”; the Staining property result is “+++”. Besides, in series [1], the Storage stability result is “+++ (rates of change of the absorbance and the fluorescence intensity are less than 5%, and thus, the storage stability is highly excellent)”. Further, in series [2], the Excitation wavelength λex amounted to 518 nm, the Fluorescence emission wavelength λem turned out to be 575 nm and the “Stokes shift (λem − λex)” value is listed as 57.

Turning to `CCN1C(=O)/C(=c2\s/c(=C/c3ccc4c(c3)C3CCCC3N4c3ccccc3)c(=O)n2CC(=O)O)SC1=S` (centres unmarked) [Dye 30], in the series on Zebrafish juveniles, the Fluorescence sensitivity entry is “+++” and the Staining property result is “+++”. Moreover, in series [1], the Storage stability entry is “+++ (rates of change of the absorbance and the fluorescence intensity are less than 5%, and thus, the storage stability is highly excellent)”. Moreover, in series [2], the Excitation wavelength λex amounted to 502 nm, the Fluorescence emission wavelength λem came to 644 nm and the “Stokes shift (λem − λex)” value is reported as 142.

Turning to `COc1ccc(N2c3ccc(/C=C/c4sc5ccccc5[n+]4CC(=O)O)cc3C3CCCC32)cc1` (centres unmarked) [Dye 31], in the series with Zebrafish juveniles, the “Site(s) to be labelled” value is listed as “nose”, the Fluorescence sensitivity entry is given as “+++” and the Staining property result was “+++”. Besides, in series [1], the Storage stability entry was “+++ (rates of change of the absorbance and the fluorescence intensity are less than 5%, and thus, the storage stability is highly excellent)”. In series [2], the Excitation wavelength λex stood at 560 nm, the Fluorescence emission wavelength λem stood at 677 nm and the “Stokes shift (λem − λex)” value was 117.

Turning to `COc1cc(/C=C2\C(=O)ON=C2c2ccccc2)cc2c1N(c1ccccc1)C1CCCC21` (centres unmarked) [Dye 34], in the series with Zebrafish juveniles, the “Site(s) to be labelled” value is reported as “nose”, the Fluorescence sensitivity entry was “+++” and the Staining property result is “+++”. Besides, the Storage stability result in series [1] was “+++ (rates of change of the absorbance and the fluorescence intensity are less than 5%, and thus, the storage stability is highly excellent)”. In series [2], the Excitation wavelength λex turned out to be 570 nm, the Fluorescence emission wavelength λem amounted to 657 nm and the “Stokes shift (λem − λex)” value was determined as 87.

With `CC1(C)C(/C=C/c2ccc3c(c2)C2CCCC2N3c2ccc(C=C(c3ccccc3)c3ccccc3)cc2)=[N+](CCC(=O)O)c2ccccc21` (centres unmarked) [Dye 35], in the series on Zebrafish juveniles, the “Site(s) to be labelled” value is given as “nose”, the Fluorescence sensitivity entry is “+++” and the Staining property entry is “+++”. In addition, the Storage stability entry in series [1] was “++ (rates of change of the absorbance and fluorescence intensity are 5 to 15%, and thus, the storage stability is excellent)”. For the same compound, in series [2], the Excitation wavelength λex was 611 nm, the Fluorescence emission wavelength λem is 720 nm and the “Stokes shift (λem − λex)” value was found to be 109.

With `COc1ccc(N2c3ccc(/C=C4/SC(=S)N(CC(=O)O)C4=O)cc3C3CCCC32)cc1` (centres unmarked) [Dye 37], in the series on Zebrafish juveniles, the “Site(s) to be labelled” value is recorded as “gallbladder”, the Fluorescence sensitivity entry is given as “+++” and the Staining property result is on record as “+++”. The Storage stability entry in series [1] was “++ (rates of change of the absorbance and fluorescence intensity are 5 to 15%, and thus, the storage stability is excellent)”. Moreover, in series [2], the Excitation wavelength λex is 571 nm, the Fluorescence emission wavelength λem was 648 nm and the “Stokes shift (λem − λex)” value was determined as 77.

With `CCN1C(=O)/C(=c2\s/c(=C/c3ccc4c(c3)C3CCCC3N4c3ccc(OC)cc3)c(=O)n2CC(=O)O)SC1=S` (centres unmarked) [Dye 38], in the series with Zebrafish juveniles, the “Site(s) to be labelled” value is “gastrointestinal tract”, the Fluorescence sensitivity entry is recorded as “+++” and the Staining property result is given as “+++”. For the same compound, the Storage stability entry in series [1] is “+++ (rates of change of the absorbance and the fluorescence intensity are less than 5%, and thus, the storage stability is highly excellent)”. Besides, in series [2], the Excitation wavelength λex was determined as 582 nm, the Fluorescence emission wavelength λem worked out at 679 nm and the “Stokes shift (λem − λex)” value turned out to be 97.

Regarding `CCN1C(=O)/C(=c2\s/c(=C/c3ccc4c(c3)C3CCCC3N4Cc3ccccc3)c(=O)n2CC(=O)O)SC1=S` (centres unmarked) [Dye 40], in the series on Zebrafish juveniles, the “Site(s) to be labelled” value was “blood vessel, liver, and gastrointestinal tract”; the Fluorescence sensitivity entry was “+++”; the Staining property result was “+++”. Further, the Storage stability result in series [1] is “+++ (rates of change of the absorbance and the fluorescence intensity are less than 5%, and thus, the storage stability is highly excellent)”. Moreover, in series [2], the Excitation wavelength λex turned out to be 576 nm, the Fluorescence emission wavelength λem is 657 nm and the “Stokes shift (λem − λex)” value is 81.

With `O=C(O)C1=NN(c2ccccc2)C(=O)/C1=C\c1cc(Br)c2c(c1)C1CCCC1N2c1ccc(Br)cc1` (centres unmarked) [Dye 42], in the series on Zebrafish juveniles, the “Site(s) to be labelled” value is “skin surface, liver, and gastrointestinal tract”; the Fluorescence sensitivity result was “+++”; the Staining property entry was “+++”. Moreover, the Storage stability entry in series [1] is “++ (rates of change of the absorbance and fluorescence intensity are 5 to 15%, and thus, the storage stability is excellent)”. In addition, in series [2], the Excitation wavelength λex came out at 563 nm, the Fluorescence emission wavelength λem came to 618 nm and the “Stokes shift (λem − λex)” value is recorded as 55.

With `COc1ccc2cc(N3c4ccc(/C=C5\C(=O)N(c6ccc(C(=O)O)cc6)N=C5C)cc4C4CCCC43)ccc2c1` (centres unmarked) [Dye 43], in the series with Zebrafish juveniles, the Fluorescence sensitivity result was “+++” and the Staining property entry was “+++”. In series [1], the Storage stability result is “+++ (rates of change of the absorbance and the fluorescence intensity are less than 5%, and thus, the storage stability is highly excellent)”. In addition, in series [2], the Excitation wavelength λex was 569 nm, the Fluorescence emission wavelength λem amounted to 649 nm and the “Stokes shift (λem − λex)” value worked out at 80.

For the compound `CC1=NN(c2ccc(C(=O)O)cc2)C(=O)/C1=C\c1ccc2c(c1)C1CCCC1N2Cc1ccccc1` (centres unmarked) [Dye 44], in the series on Zebrafish juveniles, the “Site(s) to be labelled” value was “liver and gastrointestinal tract”; the Fluorescence sensitivity result is on record as “+++”; the Staining property result was “+++”. The Storage stability result in series [1] is “++ (rates of change of the absorbance and fluorescence intensity are 5 to 15%, and thus, the storage stability is excellent)”. Further, in series [2], the Excitation wavelength λex stood at 510 nm, the Fluorescence emission wavelength λem came out at 558 nm and the “Stokes shift (λem − λex)” value is recorded as 48.

Regarding `COc1ccc2cc(N3c4ccc(/C=C/c5sc6ccccc6[n+]5CC(=O)O)cc4C4CCCC43)ccc2c1` (centres unmarked) [Dye 45], in the series on Zebrafish juveniles, the “Site(s) to be labelled” value was “nose”, the Fluorescence sensitivity result is given as “+++” and the Staining property entry was “+++”. The Storage stability result in series [1] was “+++ (rates of change of the absorbance and the fluorescence intensity are less than 5%, and thus, the storage stability is highly excellent)”. In addition, in series [2], the Excitation wavelength λex was determined as 401 nm, the Fluorescence emission wavelength λem was 516 nm and the “Stokes shift (λem − λex)” value stood at 115.

Consider `O=C(O)C1=NN(c2ccccc2)C(=O)/C1=C\c1ccc2c(c1)C1CCCC1N2c1ccc(Cc2ccccc2)cc1` (centres unmarked) [Dye 50], for which, in the series on Zebrafish juveniles, the Fluorescence sensitivity result is “+++” and the Staining property result was “+++”. The Storage stability entry in series [1] is “++ (rates of change of the absorbance and fluorescence intensity are 5 to 15%, and thus, the storage stability is excellent)”. Also, in series [2], the Excitation wavelength λex turned out to be 481 nm, the Fluorescence emission wavelength λem came out at 586 nm and the “Stokes shift (λem − λex)” value stood at 105.

For `O=C(O)C1=NN(c2ccccc2)C(=O)/C1=C\c1ccc2c(c1)C1CCCC1N2c1ccc(C=C(c2ccccc2)c2ccccc2)cc1` (centres unmarked) [Dye 51], in the series with Zebrafish juveniles, the “Site(s) to be labelled” value is “gallbladder and gastrointestinal tract”; the Fluorescence sensitivity entry is recorded as “+”; the Staining property entry is “+++”. Moreover, in series [1], the Storage stability entry was “++ (rates of change of the absorbance and fluorescence intensity are 5 to 15%, and thus, the storage stability is excellent)”. In addition, in series [2], the Excitation wavelength λex is 582 nm, the Fluorescence emission wavelength λem came to 670 nm and the “Stokes shift (λem − λex)” value stood at 88.
